From US7709475B2, “Selective inhibitors against Cdk4 and Cdk6 having aminothiazole skeleton” (Banyu Pharmaceutical Co., Ltd., priority 2004, dated 2010) come the findings set out here.

The structures appear in SMILES notation.

Assay [1] has as its target T1, cyclin D2-Cdk4 (Homo sapiens, UniProt P11802).
T1 construct: made in house; host or cells: insect cell Sf9 (baculovirus)
Nature of the assay: Cdk4 inhibitory action: cyclin D2-Cdk4 kinase activity, 33P-ATP, RB peptide substrate. Particulars: cyclin D2-Cdk4, 50 μM ATP. It is filed as biochemical. The source says: First, the cDNA of Cdk4, and the cDNA of a fusion protein of cyclin D2, an activating factor of Cdk4, and glutathione S-transferase, were integrated into a baculovirus expression vector to prepare a recombinant baculovirus. This was co-transfected into insect cell Sf9 to express an active complex of the cyclin D2/glutathione S-transferase fusion protein-Cdk4 at a high level. The cells were recovered and solubilized, then the active complex was adsorbed onto Glutathione Sepharose, and a cyclin D2-Cdk4 complex was recovered using Precision Protease and was purified by HPLC column chromatography [EMBO J., Vol. 15, 7060-7069 (1996)].
For the measurement of the activity of cyclin D2-Cdk4, a synthetic peptide (Arg-Pro-Pro-Thr-Leu-Ser-Pro-Ile-Pro-His-Ile-Pro-Arg) corresponding to amino acid residue No. 775-787 of RB protein was used as the substrate [EMBO J., Vol. 15, 7060-7069 (1996)].
The reaction was performed by partially modifying the method of Kitagawa et al. [Oncogene, Vol. 7, 1067-1074 (1992)]. The volume of the reaction solution was 21.1 μL, and the composition of the reaction buffer (R buffer) was 20 mM Tris-hydrochloric acid buffer (pH 7.4)/10 mM magnesium chloride/4.5 mM 2-mercaptoethanol/1 mM ethylene glycol bis(β-aminoethyl ether)-N,N,N′,N′-tetraacetic acid (EGTA). To this reaction buffer, purified cyclin D2-Cdk4, 100 μM of the substrate peptide, 50 μM of non-labeled adenosine triphosphate (ATP), and 1 μCi of [γ-33P]-labeled ATP (2000 to 4000 Ci/mmole) were added to react at 30° C. for 45 minutes. Then, 10 μL of 350 mM phosphate buffer was added to the reaction system to terminate the reaction. The substrate peptide was adsorbed onto P81 paper filter on a 96-well plate, and then washed several times with 75 mM phosphate buffer. The radioactivity of the substrate peptide was measured with a liquid scintillation counter. The [γ-33P]-labeled ATP was purchased from Daiichi Pure Chemicals Co., Ltd.
Addition of the test compound to the reaction system was carried out by first preparing a dilution series of solutions of the compound in dimethylsulfoxide (DMSO), and adding 1.1 μL of the dilutions. A control was provided by adding 1.1 μL of DMSO to the reaction system.
A representative compound of the compounds according to the invention was selected, and the IC50 value of this compound for the cyclin D2-Cdk4 activity was determined.

Assay [2] concerns the target T2, cyclin H-Cdk7 (Homo sapiens, UniProt P50613).
T2 construct: made in house; host or cells: insect cell Sf9 (baculovirus)
Nature of the assay: Cdk7 inhibitory action: cyclin H-Cdk7 kinase activity. The assay is classed as biochemical. Particulars: cyclin H-Cdk7, 50 μM ATP. From the text: The cDNA of Cdk7, and the cDNA of a fusion protein of cyclin H, an activating factor of Cdk7, and glutathione S-transferase, were integrated into a baculovirus expression vector to prepare a recombinant baculovirus. This was co-transfected into insect cell Sf9 to express an active complex of the cyclin H/glutathione S-transferase fusion protein-Cdk7 at a high level. The cells were recovered and solubilized, then the active complex was adsorbed onto Glutathione Sepharose, and a cyclin H-Cdk7 active complex was recovered using Precision Protease.
For the measurement of the activity of cyclin H-Cdk7, a synthetic peptide ([…] was used as the substrate.
(§1) The reaction was performed by partially modifying the method of Kitagawa et al. [Oncogene, Vol. 7, 1067-1074 (1992)]. The volume of the reaction solution was 21.1 μL, and to the R buffer, purified cyclin H-Cdk7, 25 μM of the substrate peptide, 50 μM of non-labeled adenosine triphosphate (ATP), and 1 μCi of [γ-33P]-labeled ATP (2000 to 4000 Ci/mmole) were added to react at 30° C. for 45 minutes. Then, 10 μL of 350 mM phosphate buffer was added to the reaction system to terminate the reaction. The substrate peptide was adsorbed onto P81 paper filter on a 96-well plate, and then washed several times with 75 mM phosphate buffer. The radioactivity of the substrate peptide was measured with a liquid scintillation counter.
Addition of the compound according to the invention to the reaction system was carried out by first preparing a dilution series of solutions of the compound in dimethylsulfoxide (DMSO), and adding 1.1 μL of the dilutions. A control was provided by adding 1.1 μL of DMSO to the reaction system.
A representative compound of the compounds according to the invention was selected, and the IC50 value of this compound for the cyclin H-Cdk7 activity was determined.

Assay [3] concerns the target T3, cyclin T1-Cdk9 (Homo sapiens, UniProt P50750).
T3 construct: made in house; host or cells: insect cell Sf9 (baculovirus)
Nature of the assay: Cdk9 inhibitory action: cyclin T1-Cdk9 kinase activity. It is filed as biochemical. Particulars: cyclin T1-Cdk9, 50 μM ATP.
Excerpt: The cDNA of Cdk9, and the cDNA of a fusion protein of cyclin T1, an activating factor of Cdk9, and glutathione S-transferase, were integrated into a baculovirus expression vector to prepare a recombinant baculovirus. This was co-transfected into insect cell Sf9 to express an active complex of the cyclin T1/glutathione S-transferase fusion protein-Cdk9 at a high level. The cells were recovered and solubilized, and the active complex was adsorbed onto Glutathione Sepharose, and then was purified by elution with 10 mM reductive glutathione. The solution containing the eluted active complex was dialyzed against B buffer (composition: 20 mM Tris-hydrochloric acid buffer (pH 7.4)/200 mM sodium chloride/0.1% Tween-20/10 mM 2-mercaptoethanol/1 mM dithiothreitol/10% glycerol) to remove the reductive glutathione.
For the measurement of the activity of cyclin T1-Cdk9, a synthetic peptide ([…] was used as the substrate.
as §1, with “cyclin T1-Cdk9,” for “cyclin H-Cdk7,”, “and 0.5” for “and 1”, “for 20” for “for 45”
Addition of the compound according to the invention to the reaction system was carried out by first preparing a dilution series of solutions of the compound in dimethylsulfoxide (DMSO), and adding […] of the dilutions. A control was provided by adding 1.1 μL of DMSO to the reaction system.
A representative compound of the compounds according to the invention was selected, and the IC50 value (nM) of this compound for the cyclin T1-Cdk9 activity was determined.

Assay [4] deals with JURKAT. Description: Inhibitory action against cell proliferation (WST-8), JURKAT. The assay is classed as cell-based. Particulars: Homo sapiens, 72 h, Jurkat cells, 3 days culture, read-out: concentration for 50% inhibition of cell proliferation (IC50), Jurkat. The procedure:
Clinically isolated cancer cell lines EOL-1, KU812 and JURKAT were cultured in RPMI1640 medium containing 10% fetal calf serum at 37° C. in the presence of 5% CO2 under an atmosphere of saturated steam.
The inhibitory action against cell proliferation was measured by modifying the method of Skehan et al. [J. Natl. Cancer Inst., Vo. 82, 1107-1112 (1990)] according to the method of Ishiyama et al. [Talanta, Vol. 44, 1299 (1997)]. 100 μL each of cell culture medium containing 1×10^3 live cells of EOL-1, KU812 and JURKAT, respectively, was dispensed into each well of a 96-well cell culture dish, and the cells were cultured overnight. On the next day, a dilution series of solutions in DMSO was prepared from a DMSO solution of the compound of each Example. Then, the dilution series of solutions or DMSO only as a control for no drug addition were separately added to the medium for cell culture. Finally, 100 μL each of the culture medium containing either the dilution series of solutions of the compounds or DMSO only, was added to the cells which had been cultured in a 96-well dish, and then the cells were further cultured for 3 days.
After adding 20 μL each of WST-8 (Kishida Chemical Co., Ltd.) to each well and culturing the cells for another 2 hours, the optical densities at 450 nm were measured against a reference wavelength of 650 nm, and were compared with the control group. The results obtained by determining the concentrations for 50% inhibition of cell proliferation (IC50 (nM)) of the compounds of Examples are presented in the following Table 4.
(Formazan colour is commonly taken as a measure of viable cells.)

T1 sequence (P11802 whole entry): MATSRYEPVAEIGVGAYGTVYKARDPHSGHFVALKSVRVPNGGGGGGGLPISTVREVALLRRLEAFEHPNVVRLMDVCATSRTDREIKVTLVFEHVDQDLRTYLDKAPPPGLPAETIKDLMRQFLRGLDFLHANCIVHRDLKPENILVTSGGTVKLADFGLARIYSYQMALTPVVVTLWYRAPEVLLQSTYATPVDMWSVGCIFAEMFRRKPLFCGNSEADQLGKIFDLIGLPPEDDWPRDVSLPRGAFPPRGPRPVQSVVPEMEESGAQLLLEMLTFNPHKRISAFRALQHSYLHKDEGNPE
T1 sequence (P30279 whole entry partner): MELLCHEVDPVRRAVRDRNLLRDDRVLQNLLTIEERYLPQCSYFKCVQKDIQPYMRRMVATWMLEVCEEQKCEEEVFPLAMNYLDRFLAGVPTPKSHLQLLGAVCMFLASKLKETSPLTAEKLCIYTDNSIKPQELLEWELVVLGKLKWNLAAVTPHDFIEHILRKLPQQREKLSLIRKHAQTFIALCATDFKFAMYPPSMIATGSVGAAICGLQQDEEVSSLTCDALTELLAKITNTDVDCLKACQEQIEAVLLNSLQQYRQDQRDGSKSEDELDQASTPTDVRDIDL
T2 sequence (P50613 whole entry): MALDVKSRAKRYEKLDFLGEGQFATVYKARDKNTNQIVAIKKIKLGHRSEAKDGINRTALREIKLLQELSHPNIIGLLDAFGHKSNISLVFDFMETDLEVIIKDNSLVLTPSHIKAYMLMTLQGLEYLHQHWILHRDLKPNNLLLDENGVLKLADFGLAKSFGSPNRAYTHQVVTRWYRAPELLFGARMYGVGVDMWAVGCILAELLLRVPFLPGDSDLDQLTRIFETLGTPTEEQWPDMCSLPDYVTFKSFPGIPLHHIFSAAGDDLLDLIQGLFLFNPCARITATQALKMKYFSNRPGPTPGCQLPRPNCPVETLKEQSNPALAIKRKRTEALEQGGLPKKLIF
T2 sequence (P51946 whole entry partner): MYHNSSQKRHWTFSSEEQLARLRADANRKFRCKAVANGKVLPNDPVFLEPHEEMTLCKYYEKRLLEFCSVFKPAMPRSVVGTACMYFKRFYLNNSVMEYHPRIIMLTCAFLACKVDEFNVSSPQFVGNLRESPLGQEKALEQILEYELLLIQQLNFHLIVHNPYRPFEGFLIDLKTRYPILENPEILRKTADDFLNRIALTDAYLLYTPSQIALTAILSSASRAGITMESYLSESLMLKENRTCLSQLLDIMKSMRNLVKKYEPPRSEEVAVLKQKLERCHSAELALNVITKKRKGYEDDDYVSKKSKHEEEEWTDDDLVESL
T3 sequence (P50750 whole entry): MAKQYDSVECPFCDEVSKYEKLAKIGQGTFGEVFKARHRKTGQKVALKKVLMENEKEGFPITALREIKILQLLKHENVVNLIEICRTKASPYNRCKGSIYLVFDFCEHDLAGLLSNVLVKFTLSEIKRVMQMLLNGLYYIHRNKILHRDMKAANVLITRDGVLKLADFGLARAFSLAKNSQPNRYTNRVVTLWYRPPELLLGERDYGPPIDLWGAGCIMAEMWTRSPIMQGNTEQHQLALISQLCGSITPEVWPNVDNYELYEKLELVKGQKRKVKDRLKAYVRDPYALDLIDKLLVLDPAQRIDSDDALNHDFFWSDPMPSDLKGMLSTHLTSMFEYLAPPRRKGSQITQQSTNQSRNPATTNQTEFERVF
T3 sequence (O60563 whole entry partner): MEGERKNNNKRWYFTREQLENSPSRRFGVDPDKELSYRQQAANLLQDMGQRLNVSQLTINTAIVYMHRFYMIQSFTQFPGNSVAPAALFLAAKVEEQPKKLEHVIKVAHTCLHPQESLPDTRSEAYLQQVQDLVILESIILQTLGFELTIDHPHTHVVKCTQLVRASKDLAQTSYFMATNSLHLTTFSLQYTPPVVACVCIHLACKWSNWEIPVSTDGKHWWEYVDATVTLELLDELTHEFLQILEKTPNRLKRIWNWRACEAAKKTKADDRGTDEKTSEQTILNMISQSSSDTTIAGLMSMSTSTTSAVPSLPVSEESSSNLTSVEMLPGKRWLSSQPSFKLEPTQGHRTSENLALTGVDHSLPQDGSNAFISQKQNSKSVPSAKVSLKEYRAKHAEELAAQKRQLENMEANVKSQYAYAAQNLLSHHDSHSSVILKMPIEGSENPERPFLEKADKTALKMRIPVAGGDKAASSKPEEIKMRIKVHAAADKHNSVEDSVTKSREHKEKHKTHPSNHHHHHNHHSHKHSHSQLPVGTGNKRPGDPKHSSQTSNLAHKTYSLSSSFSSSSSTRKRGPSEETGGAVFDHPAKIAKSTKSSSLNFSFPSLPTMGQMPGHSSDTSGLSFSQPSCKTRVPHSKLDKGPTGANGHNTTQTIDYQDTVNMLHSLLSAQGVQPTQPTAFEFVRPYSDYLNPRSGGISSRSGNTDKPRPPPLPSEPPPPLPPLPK

With `CCNCc1cnc(Nc2ncc(-c3cc(C)nc(NC4CCCCC4)n3)s2)cn1` [Example 52, 5-[2-(cyclohexylamino)-6-methyl-4-pyrimidinyl]-2-[5-(ethylamino)methyl-2-pyrazinyl]amino-1,3-thiazole], the IC50 is 5.5 nM in assay [1], 210 nM in assay [2], 330 nM in assay [3] and 160 nM in assay [4].
For `CCNCc1cnc(Nc2ncc(-c3cc(C)nc(Sc4ccccc4Cl)n3)s2)cn1` [Example 105, 5-[2-(2-chlorophenylthio)-6-methyl-4-pyrimidinyl]-2-[5-(ethylamino)methyl-2-pyrazinyl]amino-1,3-thiazole], the IC50 is 5.3 nM in assay [1], 370 nM in assay [2] and 180 nM in assay [3].
Turning to `Cc1cc(-c2cnc(Nc3cnc(CNC(C)C)cn3)s2)nc(Sc2ccccc2Cl)n1` [Example 106, 5-[2-(2-chlorophenylthio)-6-methyl-4-pyrimidinyl]-2-[5-(isopropylamino)methyl-2-pyrazinyl]amino-1,3-thiazole], the IC50 in assay [1] is 8.4 nM; in assay [2] it was 560 nM; in assay [3], 310 nM; in assay [4], 63 nM.
Turning to `CNCc1cnc(Nc2ncc(-c3cc(C)nc(Sc4ccccc4Cl)n3)s2)cn1` [Example 107], the IC50 in assay [1] came out at 8.8 nM; in assay [2], 830 nM; in assay [3], 250 nM; in assay [4], 63 nM.
Take `Cc1cc(-c2cnc(Nc3cnc(CN4CCC[C@H]4CO)cn3)s2)nc(Sc2ccccc2Cl)n1` [Example 110, (2S)-5-[2-(2-chlorophenylthio)-6-methyl-4-pyrimidinyl]-2-[5-(2-hydroxymethyl-1-pyrrolidinyl)methyl-2-pyrazinyl]amino-1,3-thiazole]: the IC50 in assay [1] was 10 nM; in assay [2], 490 nM; in assay [3], 320 nM; in assay [4], 73 nM.
Turning to `Cc1cc(-c2cnc(Nc3cnc(CN4CCCC4)cn3)s2)nc(Sc2ccccc2Cl)n1` [Example 113, 5-[2-(2-chlorophenylthio)-6-methyl-4-pyrimidinyl]-2-[5-(1-pyrrolidinyl)methyl-2-pyrazinyl]amino-1,3-thiazole], the IC50 in assay [1] is 13 nM; in assay [2] it was 560 nM; in assay [3], 880 nM; in assay [4], 72 nM.
Consider `Cc1cc(-c2cnc(Nc3cnc(CN(C)CCO)cn3)s2)nc(Sc2ccccc2Cl)n1` [Example 114, 5-[2-(2-chlorophenylthio)-6-methyl-4-pyrimidinyl]-2-{5-[(2-hydroxyethyl)methylamino]methyl-2-pyrazinyl}amino-1,3-thiazole], for which the IC50 in assay [1] came out at 13 nM; in assay [2] it was 780 nM; in assay [3], 1600 nM; in assay [4], 83 nM.
With `Cc1cc(-c2cnc(Nc3cnc(CN4CC[C@@H](O)C4)cn3)s2)nc(Sc2ccccc2Cl)n1` [Example 118, (3R)-5-[2-(2-chlorophenylthio)-6-methyl-4-pyrimidinyl]-2-[5-(3-hydroxy-1-pyrrolidinyl)methyl-2-pyrazinyl]amino-1,3-thiazole], the IC50 came out at 20 nM in assay [1], 990 nM in assay [2], 980 nM in assay [3] and 90 nM in assay [4].
